Target: T1, E. coli TyrRS (Escherichia coli, UniProt P0AGJ9)
T1 construct: gene tyrS; homodimer
T1 sequence (P0AGJ9 2-424): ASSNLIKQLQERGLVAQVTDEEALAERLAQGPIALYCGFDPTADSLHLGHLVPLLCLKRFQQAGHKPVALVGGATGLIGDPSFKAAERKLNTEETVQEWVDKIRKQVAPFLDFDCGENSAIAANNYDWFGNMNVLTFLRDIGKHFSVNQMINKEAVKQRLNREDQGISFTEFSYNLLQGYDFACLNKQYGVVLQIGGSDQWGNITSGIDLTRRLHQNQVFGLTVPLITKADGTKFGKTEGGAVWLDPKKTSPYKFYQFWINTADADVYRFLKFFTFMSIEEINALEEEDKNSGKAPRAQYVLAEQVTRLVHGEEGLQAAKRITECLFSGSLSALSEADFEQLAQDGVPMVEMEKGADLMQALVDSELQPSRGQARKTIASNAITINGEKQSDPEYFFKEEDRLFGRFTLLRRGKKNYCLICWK
Test: aminoacylation of […]-tRNA transcript
Assay type: biochemical
Details: 1 mM m-Tyr, 50 nM TyrRS, 25 °C; tRNA named tRNA(Tyr) in text, tRNA(Phe) in legend

Q: How did the “aminoacylation of 32P-tRNA transcript” value turn out when `NC(Cc1cccc(O)c1)C(=O)O` (racemic) [m-Tyr, D,L-m-Tyr] was run?
A: The value was “Aminoacylation of tRNA^Tyr with m-Tyr by E. coli TyrRS was detected in vitro”.
